Measured values: the supplement of paper PMC13207355
Where a name gives a salt, the structure may show the parent alone.

What was measured:
Details in all cases: exposure time: 72 h
[1] = system: E13 (patient-derived glioblastoma stem cells of classical subtype); experiment: surviving fraction (nuclei count normalised to DMSO); higher = more cells surviving (less toxic)
[2] = system: E21 (patient-derived glioblastoma stem cells of mesenchymal subtype); experiment: as above
[3] = system: E28 (patient-derived glioblastoma stem cells of classical subtype); experiment: as above
[4] = system: E31 (patient-derived glioblastoma stem cells of proneural subtype); experiment: as above
[5] = system: E34 (patient-derived glioblastoma stem cells of proneural subtype); experiment: as above
[6] = system: E57 (patient-derived glioblastoma stem cells of mesenchymal subtype); experiment: as above
[7] = system: FT3469 (normal neural stem cell line); experiment: as above
[8] = system: E13; experiment: phenotypic distance (Euclidean, principal components) from DMSO controls (arbitrary units); higher = stronger morphological change
[9] = system: E21; experiment: as above
[10] = system: E28; experiment: as above
[11] = system: E31; experiment: as above
[12] = system: E34; experiment: as above
[13] = system: E57; experiment: as above
[14] = system: FT3469; experiment: as above
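For phenotypic distance (Euclidean, principal components) from DMSO controls in this document: cell Painting imaging in 384-well plates, CellProfiler features reduced to at least 20 principal components, Euclidean distance versus same-plate DMSO vehicle wells (0.1% v/v), median over six images per well.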
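For surviving fraction (nuclei count normalised to DMSO) in this document: nuclei counted by high-content imaging of Hoechst-stained cells in laminin-coated 384-well plates, relative to 0.1% DMSO vehicle wells, with staurosporine as cell-death control.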

Nc1ccn([C@@H]2O[C@H](CO)[C@@H](O)C2(F)F)c(=O)n1 [Gemcitabine HCl]
surviving fraction ([1]; 4.1 nM): 0.327 | surviving fraction ([1]; 12.3 nM): 0.326 | surviving fraction ([1]; 37 nM): 0.331 | surviving fraction ([1]; 111.1 nM): 0.351 | surviving fraction ([1]; 333.3 nM): 0.32 | surviving fraction ([1]; 1000 nM): 0.333 | surviving fraction ([1]; 3000 nM): 0.352 | surviving fraction ([2]; 4.1 nM): 0.161 | surviving fraction ([2]; 12.3 nM): 0.173 | surviving fraction ([2]; 37 nM): 0.126 | surviving fraction ([2]; 111.1 nM): 0.143 | surviving fraction ([2]; 333.3 nM): 0.147 | surviving fraction ([2]; 1000 nM): 0.129 | surviving fraction ([2]; 3000 nM): 0.0999 | surviving fraction ([3]; 4.1 nM): 0.359 | surviving fraction ([3]; 12.3 nM): 0.438 | surviving fraction ([3]; 37 nM): 0.376 | surviving fraction ([3]; 111.1 nM): 0.456 | surviving fraction ([3]; 333.3 nM): 0.401 | surviving fraction ([3]; 1000 nM): 0.361 | surviving fraction ([3]; 3000 nM): 0.264 | surviving fraction ([4]; 4.1 nM): 0.147 | surviving fraction ([4]; 12.3 nM): 0.249 | surviving fraction ([4]; 37 nM): 0.161 | surviving fraction ([4]; 111.1 nM): 0.229 | surviving fraction ([4]; 333.3 nM): 0.201 | surviving fraction ([4]; 1000 nM): 0.199 | surviving fraction ([4]; 3000 nM): 0.161 | surviving fraction ([5]; 4.1 nM): 0.494 | surviving fraction ([5]; 12.3 nM): 0.545 | surviving fraction ([5]; 37 nM): 0.509 | surviving fraction ([5]; 111.1 nM): 0.52 | surviving fraction ([5]; 333.3 nM): 0.549 | surviving fraction ([5]; 1000 nM): 0.496 | surviving fraction ([5]; 3000 nM): 0.415 | surviving fraction ([6]; 4.1 nM): 0.168 | surviving fraction ([6]; 12.3 nM): 0.168 | surviving fraction ([6]; 37 nM): 0.156 | surviving fraction ([6]; 111.1 nM): 0.165 | surviving fraction ([6]; 333.3 nM): 0.139 | surviving fraction ([6]; 1000 nM): 0.159 | surviving fraction ([6]; 3000 nM): 0.149 | surviving fraction ([7]; 4.1 nM): 0.53 | surviving fraction ([7]; 12.3 nM): 0.842 | surviving fraction ([7]; 37 nM): 0.616 | surviving fraction ([7]; 111.1 nM): 0.663 | surviving fraction ([7]; 333.3 nM): 0.566 | surviving fraction ([7]; 1000 nM): 0.568 | surviving fraction ([7]; 3000 nM): 0.645 | phenotypic distance ([8]; 4.1 nM): 5.82 | phenotypic distance ([8]; 12.3 nM): 5.84 | phenotypic distance ([8]; 37 nM): 5.64 | phenotypic distance ([8]; 111.1 nM): 4.94 | phenotypic distance ([8]; 333.3 nM): 6.22 | phenotypic distance ([8]; 1000 nM): 5.7 | phenotypic distance ([8]; 3000 nM): 5.74 | phenotypic distance ([9]; 4.1 nM): 4.04 | phenotypic distance ([9]; 12.3 nM): 4.48 | phenotypic distance ([9]; 37 nM): 4.76 | phenotypic distance ([9]; 111.1 nM): 5.02 | phenotypic distance ([9]; 333.3 nM): 4.71 | phenotypic distance ([9]; 1000 nM): 4.97 | phenotypic distance ([9]; 3000 nM): 4.67 | phenotypic distance ([10]; 4.1 nM): 3.94 | phenotypic distance ([10]; 12.3 nM): 3.54 | phenotypic distance ([10]; 37 nM): 3.74 | phenotypic distance ([10]; 111.1 nM): 3.43 | phenotypic distance ([10]; 333.3 nM): 3.31 | phenotypic distance ([10]; 1000 nM): 3.19 | phenotypic distance ([10]; 3000 nM): 4.17 | phenotypic distance ([11]; 4.1 nM): 3.35 | phenotypic distance ([11]; 12.3 nM): 2.57 | phenotypic distance ([11]; 37 nM): 3.01 | phenotypic distance ([11]; 111.1 nM): 2.66 | phenotypic distance ([11]; 333.3 nM): 2.37 | phenotypic distance ([11]; 1000 nM): 3 | phenotypic distance ([11]; 3000 nM): 3.64 | phenotypic distance ([12]; 4.1 nM): 3.49 | phenotypic distance ([12]; 12.3 nM): 2.98 | phenotypic distance ([12]; 37 nM): 3.41 | phenotypic distance ([12]; 111.1 nM): 4.74 | phenotypic distance ([12]; 333.3 nM): 3.17 | phenotypic distance ([12]; 1000 nM): 2.85 | phenotypic distance ([12]; 3000 nM): 2.83 | phenotypic distance ([13]; 4.1 nM): 6.66 | phenotypic distance ([13]; 12.3 nM): 8.21 | phenotypic distance ([13]; 37 nM): 6.89 | phenotypic distance ([13]; 111.1 nM): 7.27 | phenotypic distance ([13]; 333.3 nM): 7.04 | phenotypic distance ([13]; 1000 nM): 7.07 | phenotypic distance ([13]; 3000 nM): 6.77 | phenotypic distance ([14]; 4.1 nM): 1.82 | phenotypic distance ([14]; 12.3 nM): 1.99 | phenotypic distance ([14]; 37 nM): 2.01 | phenotypic distance ([14]; 111.1 nM): 2.15 | phenotypic distance ([14]; 333.3 nM): 1.98 | phenotypic distance ([14]; 1000 nM): 1.8 | phenotypic distance ([14]; 3000 nM): 1.5
